Experimental data: ChEMBL document CHEMBL5661976 (Cancer Res, 2007)
pIC50: −log10 of the molar value. The source made the active and inactive calls. The rule behind the calls is not given here.

Legend:
[1] = target: Receptor tyrosine-protein kinase erbB-2 (Mus musculus, UniProt P70424); experiment: Inhibition of ERBB2 expressed in mouse NIH3T3 cells; format: cell-based
NCI-H3255 = experiment: Induction of apoptosis in human NCI-H3255 cells assessed as increase in cleavage of PARP at 1 micromol/L incubated for 72 hrs by Western blotting analysis; format: functional, cell-based; conditions: dose 1.0 µmol/L
[2] = target: Receptor tyrosine-protein kinase erbB-3 (Homo sapiens) (UniProt P21860); experiment: Inhibition of ERBB3 phosphorylation in human HCC827 cells expressing GFP at 1 to 10000 nmol/L incubated for 12 hrs by Western blotting analysis; format: cell-based; conditions: dose 1-10000 nmol/L
Receptor tyrosine-protein kinase erbB-3 (Homo sapiens), sequence (P21860 whole entry): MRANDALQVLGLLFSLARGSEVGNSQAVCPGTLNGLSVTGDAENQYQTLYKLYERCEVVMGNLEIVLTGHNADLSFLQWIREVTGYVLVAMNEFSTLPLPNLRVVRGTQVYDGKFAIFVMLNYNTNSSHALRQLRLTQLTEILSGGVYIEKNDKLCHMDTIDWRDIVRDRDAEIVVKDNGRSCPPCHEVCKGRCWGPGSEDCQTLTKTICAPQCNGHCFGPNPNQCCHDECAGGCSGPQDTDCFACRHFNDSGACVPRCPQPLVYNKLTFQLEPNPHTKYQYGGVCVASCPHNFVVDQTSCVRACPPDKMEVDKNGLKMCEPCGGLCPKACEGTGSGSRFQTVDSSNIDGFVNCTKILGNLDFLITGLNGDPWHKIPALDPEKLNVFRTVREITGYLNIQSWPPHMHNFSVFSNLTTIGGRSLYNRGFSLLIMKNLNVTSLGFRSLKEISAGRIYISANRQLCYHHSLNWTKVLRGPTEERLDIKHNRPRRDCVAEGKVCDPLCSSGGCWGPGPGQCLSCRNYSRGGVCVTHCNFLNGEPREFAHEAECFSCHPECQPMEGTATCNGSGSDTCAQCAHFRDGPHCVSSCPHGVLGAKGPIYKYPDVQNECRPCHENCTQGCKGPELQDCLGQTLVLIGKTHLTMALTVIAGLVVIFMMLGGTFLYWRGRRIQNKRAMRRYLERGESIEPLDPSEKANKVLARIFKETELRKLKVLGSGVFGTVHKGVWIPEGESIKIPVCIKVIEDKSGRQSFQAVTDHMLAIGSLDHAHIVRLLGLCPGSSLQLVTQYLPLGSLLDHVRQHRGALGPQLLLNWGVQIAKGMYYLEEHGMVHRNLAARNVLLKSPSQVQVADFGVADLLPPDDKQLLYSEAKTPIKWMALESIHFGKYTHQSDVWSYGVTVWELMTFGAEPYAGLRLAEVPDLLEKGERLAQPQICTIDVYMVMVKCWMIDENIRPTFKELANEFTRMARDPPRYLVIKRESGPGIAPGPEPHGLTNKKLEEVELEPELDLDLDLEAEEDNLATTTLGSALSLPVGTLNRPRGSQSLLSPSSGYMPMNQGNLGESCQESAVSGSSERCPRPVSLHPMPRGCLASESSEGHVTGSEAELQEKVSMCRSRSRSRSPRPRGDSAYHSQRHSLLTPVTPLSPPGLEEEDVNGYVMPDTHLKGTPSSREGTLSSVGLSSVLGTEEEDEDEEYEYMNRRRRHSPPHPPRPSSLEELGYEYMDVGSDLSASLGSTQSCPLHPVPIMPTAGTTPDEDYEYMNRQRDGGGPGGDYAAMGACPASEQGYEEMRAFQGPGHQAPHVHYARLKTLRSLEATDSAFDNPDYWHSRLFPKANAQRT

Receptor tyrosine-protein kinase erbB-2, sequence (P70424 whole entry): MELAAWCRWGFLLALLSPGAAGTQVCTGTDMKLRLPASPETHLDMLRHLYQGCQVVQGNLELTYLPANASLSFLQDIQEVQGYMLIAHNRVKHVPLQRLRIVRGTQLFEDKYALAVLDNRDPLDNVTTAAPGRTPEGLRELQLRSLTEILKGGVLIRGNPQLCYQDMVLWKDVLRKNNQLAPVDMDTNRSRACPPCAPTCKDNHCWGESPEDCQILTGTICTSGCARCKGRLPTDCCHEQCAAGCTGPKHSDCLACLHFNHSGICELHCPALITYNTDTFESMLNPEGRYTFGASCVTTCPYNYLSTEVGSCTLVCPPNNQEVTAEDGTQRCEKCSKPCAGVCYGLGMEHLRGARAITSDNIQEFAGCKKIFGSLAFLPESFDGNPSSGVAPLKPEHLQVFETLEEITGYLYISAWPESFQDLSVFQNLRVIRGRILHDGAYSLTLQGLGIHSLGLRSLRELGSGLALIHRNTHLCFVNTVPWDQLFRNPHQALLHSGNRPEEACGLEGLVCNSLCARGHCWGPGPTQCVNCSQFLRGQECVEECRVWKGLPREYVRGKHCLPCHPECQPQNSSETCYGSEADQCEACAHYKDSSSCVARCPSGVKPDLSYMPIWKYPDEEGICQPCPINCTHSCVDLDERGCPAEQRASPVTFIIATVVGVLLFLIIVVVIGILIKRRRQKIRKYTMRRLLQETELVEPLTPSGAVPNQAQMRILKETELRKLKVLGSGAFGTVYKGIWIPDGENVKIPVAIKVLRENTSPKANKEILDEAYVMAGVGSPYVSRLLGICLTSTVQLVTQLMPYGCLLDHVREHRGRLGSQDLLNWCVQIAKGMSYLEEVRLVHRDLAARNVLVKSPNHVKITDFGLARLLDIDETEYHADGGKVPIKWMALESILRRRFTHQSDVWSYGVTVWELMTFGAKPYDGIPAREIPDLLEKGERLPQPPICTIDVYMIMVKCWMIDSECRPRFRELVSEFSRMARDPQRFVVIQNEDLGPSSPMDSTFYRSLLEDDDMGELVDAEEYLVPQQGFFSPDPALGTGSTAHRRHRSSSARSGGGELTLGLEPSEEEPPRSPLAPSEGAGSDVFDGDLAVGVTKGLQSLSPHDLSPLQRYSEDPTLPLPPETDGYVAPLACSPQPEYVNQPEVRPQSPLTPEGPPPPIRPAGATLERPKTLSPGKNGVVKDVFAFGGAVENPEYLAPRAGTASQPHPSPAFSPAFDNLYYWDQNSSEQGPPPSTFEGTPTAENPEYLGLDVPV

SMILES: C#Cc1cccc(Nc2ncnc3cc(OCCOC)c(OCCOC)cc23)c1 [ERLOTINIB]
- pIC50 [1]: 6.52

SMILES: COc1cc2ncnc(Nc3ccc(F)c(Cl)c3)c2cc1OCCCN1CCOCC1 [GEFITINIB]
- pIC50 [1]: < 6.30
- Activity (NCI-H3255): Active
- inhibition [2]: Active
